For data set [1] the following is noted: administered locally as eyedrops; cited from earlier work.
A short description of data set [2]: Lipophilicity: partition coefficient (octanol-buffer) and capacity factor by RP-HPLC. The format is physicochemical. Conditions: rp-hplc; reverse phase HPLC, 22°C; read-out: Capacity factor (22°C) k' (converted). The text has this: The lipophilicity of the compounds were studied by determining the partition coefficients (P) of the compounds at a pH of 7.40. The measurements were made either in an octanol-buffer mixture by determining the concentration of the compound to be studied in the buffer phase by HPLC. The partition coefficients of the very lipophilic compounds were, however, determined by reverse phase (RP) liquid chromatography (HPLC) from the retention time (Beckmann 116 pump and 166 UV detector; Marathon autom. sample feeder). […] From the results it can be seen that the compounds of the invention are considerably more lipophilic than the pilocarpine.

Data set [3] in a line: Corneal permeability in a diffusion chamber. Conditions: rabbit eye cornea, diffusion chamber, epithelium side to endothelium side; read-out: Permeability coefficient Papp. In kind it is in vitro ADME, rabbit. The text has this:
The corneal permeability of pilocarpine hydrochloride and its most promising prodrug derivatives as evaluated from the tests described above were studied in a diffusion chamber, wherein the migration of the compound from the delivering phase (epithelium side) thorugh the cornea to the acceptor side (endothelium side) of the diffusion chamber. In the study, rabbit eye cornea was used. From the samples taken from the acceptor side of the diffusion chamber, both the concentration of the prodrug and the liberated drug were determined in the acceptor phase with HPLC. Thus the rate of degradation of the prodrug in the cornea was determined. The permeability coefficients (Papp, cm/s) calculated from the permeability rate (μmol/min), their […] deviations (RSD) and the number of tests, are given in the Table II below.

Data set [4] is described as follows: pKa-value determination by titration in a water-ethanol mixture (50%-50%). The format is physicochemical. The note with it: water-ethanol 50:50; titration in water-ethanol mixture (50%-50%).
Data set [5] in a line: Lipophilicity: partition coefficient (octanol-buffer) and capacity factor by RP-HPLC. The format is physicochemical. Conditions: pH 5.0.
The nature of data set [6]: Enzyme hydrolysis in plasma/buffer pH 7.4 mixture (80%-20%). In kind it is in vitro ADME. Conditions: 80% plasma/buffer; plasma/buffer pH 7.4 (80%-20%), 37°C; read-out: half-times (T½) in plasma (80%), 37°C. As for the experimental part:
The half-times of enzyme hydrolysis of the novel bispilocarpates according to the invention and of known pilocarpic acid diesters were determined in a plasma/buffer pH 7.4-mixture (80%-20%) at 37°C. The degradation constants (k) for the compounds tested and determined from the plot showing the logarithm of remaining diester as a function of time and the half-lives T½ are shown in the Table II below. From the results it may be seen that in […] the stable test compound degrades under the influence of an enzyme (esterase) to a O,O'-dihydrogen bispilocarpate intermediate, which spontaneously degrades at pH 7.40 to pilocarpine. Consequently the effect of the bispilocarpate intermediate on the rate of formation of pilocarpine is very significant. The formation of pilocarpine was almost complete irrespective of the epimerization possibility of the intermediate. The amount of isopilocarpine formed varied from 0 to 10%, as also the pilocarpine formed epimerized, if the duration of hydrolysis was very long.

Data set [7] in a line: Stability of the compounds: buffer hydrolysis (half-times, shelf-life). In kind it is physicochemical. The note with it: buffer, 50 °C. As for the experimental part:
The stability of the test compounds were tested with buffer hydrolyses. The ionic strength (µ) of the buffers was 0.5, the pH-values used 4.2, 6.0, 7.4 and 9.0 and the temperatures used 37°C, 50 °C, 60 °C and 70 °C.
The half-times T½ calculated on basis of the degradation constant k obtained for each studied compound (T½=0.693/k; k = 2.303 x kk, wherein kk is the angular coefficient of the plot which illustrates the logarithm of the remaining ester as a function of time) in a buffer solution of said pH, are indicated in the Table I below, which values refer to half-times at 37°C.
The storage stability of the derivatives under different storage conditions may be estimated by determining the degradation constants at different temperatures and calculating the degradation constant k at the desired temperature from the equation of the plot corresponding to the Arrhenius equation (1), wherein log k is given as a function of [1/T]. Log k = Log A -(Ea)/(2.303R)x(1)/(T) [formula]
From the degradation constant (k) obtained at the desired temperature the shelf-life-time t10% (t10% = 0.104/k) which indicates the time during which 10% of the drug has degraded may be calculated. By way of example it may be mentioned that the t10%-time of O,O'-dipropionyl (1,4-xylylene) bispilocarpate at 4 °C is almost 500 days.

For `CC[C@@H]1C(=O)OC[C@@H]1Cc1cncn1C` [Pilocarpine, (3S-cis)-3-ethyl-dihydro-4-[(1-methyl-1H-imidazol-5-yl)methyl]-2(3H)-furanone], in data set [1], the “pilocarpine dose absorbed by the eye” value is reported as “about 1%” and the “pilocarpine dose absorbed in the blood stream” value was “about 70%”. Besides, the chromatographic logP in data set [2] was -0.392. For the same compound, the Papp in data set [3] stood at 4.1 ×10⁻⁶ cm/s.

With `CC[C@H](C(=O)OCCCCCCOC(=O)[C@@H](CC)[C@H](COC(=O)C1CC1)Cc1cncn1C)[C@H](COC(=O)C1CC1)Cc1cncn1C` [Example 20, O,O'-Dicyclopropylcarbonyl (1,6-hexylene) bispilocarpate], in data set [4], the pKa is 6. Also, the logD in data set [5] was found to be 0.88. In addition, the half-life is 0.0104 days in data set [6]; 134 days in data set [7] (pH 4.2, pH 4.20, read-out: Chemical hydrolysis t½, pH 4.20 (converted)); 27.7 days in data set [7] (pH 7.4, pH 7.40, read-out: Chemical hydrolysis t½, pH 7.40 (converted)); 142 days in data set [7] (pH 6.00, read-out: Chemical hydrolysis t½, pH 6.00 (converted)).

The values are drawn from patent EP0559700B1, “NOVEL PILOCARPINE DERIVATIVES AND PROCESS FOR THEIR PREPARATION” (Santen Oy, priority 1990, dated 1992).
